# Marks after values point to notes of the source that are not given here.
# Experiments:
# Balb/c mice [1] = experiment: plasma extravasation in the ear pinna of the mouse induced by peptide P6-11 of substance P; assay type: in vivo; details: P 6-11
# FRTL5 cells [2] = experiment: release of [3H]-arachidonic acid from FRTL5 cells stimulated with ATP; assay type: cell-based, rat; details: ATP 100 μM 10 minutes
# Protocol: FRTL5, cell line of epithelial cells from rat thyroid grown in culture. Briefly, the cells were cultured in Coon's F12 medium modified according to Ham and supplemented with 5% bovine serum, 20 mM glutamine and a mixture of six hormones. (6H-thyrotropin, insulin, transferring, cortisol, somatostatin, glicil-L-istidil-L-lysine acetate) at 37° C. in a humidified atmosphere in 5% CO2, 95% air medium changed every 3-4 days. […]
# (§1) The cells are initially incubated with various concentrations of the compound under examination for 60 minutes or with a predefined concentration of 100 μM for various time intervals (15-180 minutes), washed two times with HBSS (Hank's Balanced Salt Solution, in the presence of Ca2+ and Mg2+ ions) added with 10 mM Hepes and 0.2% BSA—in absence of free fatty acids, pH 7.4 and stimulated with 100 μM ATP in the described buffer for 10 minutes at 37° C. The supernatant was collected in scintillation cuvettes for determination. The results are expressed as a percentage of the total release of [3H]-arachidonic acid.
# Preloaded cells are incubated with 100 μM of compound of the Example 4a for different time intervals and then stimulated with ATP (100 μM) for 10 minutes. The results are expressed as the mean±SE of two points in 3 separate experiments. The stimulation of control cells was generally 4-5 times the basal value in the corresponding intervals.
# (§2) Preloaded cells were pre-incubated with various concentrations of the Example 4a for 60 minutes and then stimulated with 100 μM ATP for 10 minutes. The results are expressed as the mean±SE of two points in 3 separate experiments.
# FRTL5 cells [3] = experiment: release of [3H]-arachidonic acid induced by ionomicin in FRTL5 cells (cPLA2-independent); assay type: cell-based, rat; details: for Release of [^3H]-arachidonic acid: then 10 μM ionomicin 30 minutes
# Protocol: FRTL5, cell line of epithelial cells from rat thyroid grown in culture. Briefly, the cells were cultured in Coon's F12 medium modified according to Ham and supplemented with 5% bovine serum, 20 mM glutamine and a mixture of six hormones. (6H-thyrotropin, insulin, transferring, cortisol, somatostatin, glicil-L-istidil-L-lysine acetate) at 37° C. in a humidified atmosphere in 5% CO2, 95% air medium changed every 3-4 days.
# cPLA2-independent mechanism, for example Ca2+ ionophore, ionomicin.
# as §1
# Preloaded cells were pre-incubated with various concentrations of the Example 4a for 60 minutes and then stimulated with 10 μM ionomicin for 30 minutes. The results are expressed as the mean±SE of two points in 3 separate experiments.
# cPLA2 = experiment: release of arachidonic acid induced by the activation of cPLA2 in various cellular systems (overall statement); assay type: cell-based; details: all the cellular systems tested
# Protocol: Evaluation of the effects of the L-α-glycero-phospho-D-mio-inositol autacoid coded example 4a on the release of arachidonic acid induced by cPLA2 in various cellular systems.
# The cultures are stimulated to release arachidonic acid using various stimuli:
# (§3) cPLA2-dependent mechanism, for example ATP, mastoparan, bombesin;
# as §1
# Swiss 3T3 fibroblasts [4] = experiment: mastoparan-dependent release of [3H]-arachidonic acid in Swiss 3T3 fibroblasts; assay type: cell-based
# Protocol: as §3, §1
# Preloaded radioactively labeled cells were pre-incubated with various concentrations of the Example 4a for 60 minutes and then stimulated with 100 μM mastoparan for 10 minutes. The results are expressed as the mean±SE of two points in 3 separate experiments.
# Swiss 3T3 fibroblasts [5] = experiment: release of [3H]-arachidonic acid from Swiss 3T3 fibroblasts stimulated with ATP; assay type: cell-based
# Protocol: as §3, §1, §2
# Swiss 3T3 fibroblasts [6] = experiment: bombesin-dependent release of [3H]-arachidonic acid in Swiss 3T3 fibroblasts; assay type: cell-based; details: then bombesin 10 minutes
# Protocol: as §3, §1
# Preloaded cells were pre-incubated with various concentrations of the Example 4a for 60 minutes and then stimulated with bombesin for 10 minutes. The results are expressed as the mean±SE of two points in 3 separate experiments.
# solubility in water = assay type: physicochemical
# [7] = solubility in organic solvents; assay type: physicochemical
# Balb/c mice [8] = experiment: plasma extravasation in the ear pinna of the mouse induced by substance P; details: compound 5 mg/kg endovenous
# [9] = compound 5 mg/kg endovenous 30 minutes before
# [10] = compound 10 mg/Kg endovenous 30 minutes before
compound,measurement,setting,value
L-α-glycero-phospho-D-mio-inositol calcium salt [Example 2],"Absorbance (Evan's Blue, 620 nm)",Balb/c mice [1]; [9],0.092 ± 0.021
same,"Absorbance (Evan's Blue, 620 nm)",Balb/c mice [1]; [10],0.079 ± 0.022•
"O=P([O-])(OCC(O)CO)OC1C(O)C(O)C(O)C(O)C1O.[K+] [Example 4a, L-α-glycero-phospho-D-mio-inositol potassium salt]",Release of [^3H]-arachidonic acid % inhibition,"FRTL5 cells [2]; 0.005 μM compound, 60 minutes preincubation",10 ± 2 % inhibition
same,Release of [^3H]-arachidonic acid % inhibition,"FRTL5 cells [2]; 0.01 μM compound, 60 minutes preincubation",35 ± 5 % inhibition
same,Release of [^3H]-arachidonic acid % inhibition,"FRTL5 cells [2]; 0.1 μM compound, 60 minutes preincubation",41 ± 2 % inhibition
same,Release of [^3H]-arachidonic acid % inhibition,"FRTL5 cells [2]; 1.0 μM compound, 60 minutes preincubation",52 ± 3 % inhibition
same,Release of [^3H]-arachidonic acid % inhibition,"FRTL5 cells [2]; 10 μM compound, 60 minutes preincubation",60 ± 8 % inhibition
same,Release of [^3H]-arachidonic acid % inhibition,"FRTL5 cells [2]; 50 μM compound, 60 minutes preincubation",70 ± 4 % inhibition
same,Release of [^3H]-arachidonic acid % inhibition,"FRTL5 cells [2]; 100 μM compound, 15 minutes of preincubation",30 ± 4 % inhibition
same,Release of [^3H]-arachidonic acid % inhibition,"FRTL5 cells [2]; 100 μM compound, 30 minutes of preincubation",42 ± 5 % inhibition
same,Release of [^3H]-arachidonic acid % inhibition,"FRTL5 cells [2]; 100 μM compound, 60 minutes of preincubation",70 ± 4 % inhibition
same,Release of [^3H]-arachidonic acid % inhibition,"FRTL5 cells [2]; 100 μM compound, 60 minutes preincubation",92 ± 2 % inhibition
same,Release of [^3H]-arachidonic acid % inhibition,"FRTL5 cells [2]; 100 μM compound, 90 minutes of preincubation",72 ± 5 % inhibition
same,Release of [^3H]-arachidonic acid % inhibition,"FRTL5 cells [2]; 100 μM compound, 120 minutes of preincubation",71 ± 6 % inhibition
same,Release of [^3H]-arachidonic acid % inhibition,"FRTL5 cells [2]; 100 μM compound, 180 minutes of preincubation",92 ± 9 % inhibition
same,Release of [^3H]-arachidonic acid,FRTL5 cells [3]; 50 μM compound 60 minutes,720 ± 30
same,Release of [^3H]-arachidonic acid,FRTL5 cells [3]; 100 μM compound 60 minutes,450 ± 14
same,effect on release of arachidonic acid induced by stimuli not related to cPLA2 (in words),FRTL5 cells [3]; calcium ionophore,does not induce reduction of the release of arachidonic acid
same,effect on release of arachidonic acid induced by the activation of the cPLA2 (in words),cPLA2,reduce in a time and concentration dependent manner the release of arachidonic acid
same,Release of [^3H]-arachidonic acid % basal,"Swiss 3T3 fibroblasts [4]; 50 μM compound 60 minutes, then 100 μM mastoparan 10 minutes",90 ± 3 % basal
same,Release of [^3H]-arachidonic acid % basal,"Swiss 3T3 fibroblasts [4]; 100 μM compound 60 minutes, then 100 μM mastoparan 10 minutes",80 ± 4 % basal
same,Absorbance x10^−2,Balb/c mice [1]; compound 0.5 mg/kg endovenous (Table 8),54 ± 4* x10^−2
same,Absorbance x10^−2,Balb/c mice [1]; compound 1.5 mg/Kg endovenous (Table 8),57 ± 7* x10^−2
same,Absorbance x10^−2,Balb/c mice [1]; compound 5 mg/Kg endovenous (Table 8),34 ± 8* x10^−2
same,"Absorbance (Evan's Blue, 620 nm)",Balb/c mice [1]; [9],0.081 ± 0.027
same,Release of [^3H]-arachidonic acid % basal,"Swiss 3T3 fibroblasts [5]; 50 μM compound 60 minutes, then 100 μM ATP 10 minutes",80 ± 9 % basal
same,Release of [^3H]-arachidonic acid % basal,"Swiss 3T3 fibroblasts [5]; 100 μM compound 60 minutes, then 100 μM ATP 10 minutes",70 ± 4 % basal
same,Release of [^3H]-arachidonic acid % basal,Swiss 3T3 fibroblasts [6]; 50 μM compound 60 minutes,120 ± 3 % basal
same,Release of [^3H]-arachidonic acid % basal,Swiss 3T3 fibroblasts [6]; 100 μM compound 60 minutes,90 ± 4 % basal
L-α-glycero-phospho-D-mio-inositol zinc salt [Example 3],effect on release of arachidonic acid induced by the activation of the cPLA2 (in words),cPLA2,more potent effect
"O=P([O-])(OCC(O)CO)OC1C(O)C(O)C(O)C(O)C1O.[Na+] [Example 4, L-α-glycerol-phospho-D-mio-inositol sodium salt]",effect on release of arachidonic acid induced by the activation of the cPLA2 (in words),cPLA2,more potent effect
"CCCC[N+](CCCC)(CCCC)CCCC.O=P([O-])(OCC(O)CO)OC1C(O)C(O)C(O)C(O)C1O [Example 8, L-α-glycero-phospho-D-mio-inositol tetrabutylammonium salt]",solubility in water,solubility in water,>10000 µg/mL
same,solubility in organic solvents,[7]; in DMF,≧10 mg/ml in DMF
same,solubility in organic solvents,[7]; in words,"slightly soluble in organic solvents,"
"Nc1ncnc2c1ncn2[C@@H]1O[C@H](COP(=O)(O)OP(=O)(O)OP(=O)(O)O)[C@@H](O)[C@H]1O [ATP, reference compound]",Release of [^3H]-arachidonic acid % basal,"Swiss 3T3 fibroblasts [5]; stimulus alone: 100 μM ATP 10 minutes, no test compound",149 ± 11 % basal
"C[N+](C)(C)CCO.O=P([O-])(OCC(O)CO)OC1C(O)C(O)C(O)C(O)C1O [Example 5, L-α-glycero-phospho-D-mio-inositol choline salt]","Absorbance (Evan's Blue, 620 nm)",Balb/c mice [8],0.222 ± 0.010
Mastoparan [reference compound],Release of [^3H]-arachidonic acid % basal,"Swiss 3T3 fibroblasts [4]; stimulus alone: 100 μM mastoparan 10 minutes, no test compound",150 ± 12 % basal
"NCCCC[C@H](N)C(=O)O.O=P(O)(OCC(O)CO)OC1C(O)C(O)C(O)C(O)C1O [Example 6, L-α-glycero-phospho-D-mio-inositol lysine salt]","Absorbance (Evan's Blue, 620 nm)",Balb/c mice [8],0.239 ± 0.015
same,"Absorbance (Evan's Blue, 620 nm)",Balb/c mice [1]; [9],0.131 ± 0.022
same,"Absorbance (Evan's Blue, 620 nm)",Balb/c mice [1]; [10],0.072 ± 0.010•

# From US7625883B1, “Glycerophosphoinositol derivatives as modulators of cytosolic A2 phospholipase” (I.R.B. Istituto di Ricerche Biotechnologiche S.R.L., priority 2000, dated 2009)
